# Data from paper PMC4393105, “tRNA^Glu Increases the Affinity of Glutamyl-tRNA Synthetase for Its Inhibitor Glutamyl-Sulfamoyl-Adenosine, an Analogue of the Aminoacylation Reaction Intermediate Glutamyl-AMP: Mechanistic and Evolutionary Implications” (PLoS ONE, 2015).
# Where “and” joins values, the source holds several entries; their conditions need not be identical. Equal values may be shown once.
# Target: T1, E. coli GluRS (Escherichia coli, UniProt P04805)
# T1 construct: His tag (histidine tag) (C); made in house
# Experiment: Isothermal titration microcalorimetry of Glu-AMS binding to GluRS in the absence of tRNA
# Conditions: no tRNA; for Kd: Kd (dissociation constant), Kd = 1/Kb
# Experimental: Overproduction and purification of E. coli GluRS were performed as previously described with the following modifications. A C-terminal histidine-tagged GluRS was used instead of the N-terminal tagged one. The overproduction was induced overnight at 30°C with 1 mM IPTG.
# The GluRS solution with or without tRNA was dialyzed overnight in a D-tube dialyzer (Novagen) against 2 L of dialysis buffer (50 mM HEPES-KOH, pH 7.2, 10 mM MgCl2) at 4°C with light stirring. The next morning, the dialyzed solution was recovered and the volume adjusted by adding dialysis buffer to obtain the desired concentration (typically 9 μM GluRS and 11 μM tRNA^Glu). This solution was kept on ice until use. Glu-AMS was diluted in the dialysis buffer to obtain a final concentration of 90 μM. All buffers and solutions were degased with stirring under vacuum. The microcalorimetry experiments were carried out in a VP-ITC 100 microcalorimeter (MicroCal, GE Healthcare) using deionized water as an internal reference for all assays. VPViewer ITC 2000 and Origin v 5.0 softwares (Microcal Software, Inc) were used for data collection and analysis, respectively.
# To measure the thermodynamic parameters of the interaction between Glu-AMS and GluRS, in the presence and in the absence of tRNA, a solution containing 9 μM GluRS with or without a stoichiometric excess of tRNA^Glu or S. cerevisiae tRNA^Phe (Table 1) was placed in the sample cell of the microcalorimeter. The following conditions were used for all tests: reference power was set at 12 μcal/s and stirring at 300 rpm, the “high” feedback mode and “No check Temp”, “Fast Equil” and “Auto” ITC equilibration options were selected. The 90 μM Glu-AMS solution was loaded in the injection syringe. After a first injection of 1 μL over 2 s, a series of 39 injections (7.4 μL over 14.8 s) with 240 s between injections was performed. Injections of Glu-AMS in GluRS alone, GluRS•tRNA^Glu or GluRS•tRNA^Phe, were performed at 30°C (303 K), and done in duplicate. Injections of Glu-AMS in GluRS were also performed at 20°C and 37°C (293 and 310 K): 14 injections (20 μL over 40 s) followed the first injection of 1 μL. Each temperature was tested in duplicate, and in triplicate at 37°C.
# The following nomenclature was used to describe the interaction at equilibrium between Glu-AMS and either GluRS or a GluRS•tRNA complex: GluRS•Glu-AMS↔GluRS+[…] Kd=[GluRS]×[Glu-AMS]/[GluRS•Glu-AMS] 1/Kd=Kb (binding constant, sometimes referred to as Ka).
# [1] = single ITC run, 293 K, [ligand] 90 µM, [GluRS] 4.15 µM
# [2] = single ITC run, 293 K, [ligand] 90 µM, [GluRS] 4.35 µM
# [3] = single ITC run, 303 K, [ligand] 90 µM, [GluRS] 4.143 µM
# [4] = single ITC run, 303 K, [ligand] 90 µM, [GluRS] 5.355 µM
# [5] = single ITC run, 310 K, [ligand] 90 µM, [GluRS] 3.169 µM
# [6] = single ITC run, 310 K, [ligand] 90 µM, [GluRS] 3.931 µM
# [7] = single ITC run, 310 K, [ligand] 90 µM, [GluRS] 4.015 µM
# [8] = 30°C (303 K), weighted mean of ITC runs
# T1 sequence (P04805 whole entry): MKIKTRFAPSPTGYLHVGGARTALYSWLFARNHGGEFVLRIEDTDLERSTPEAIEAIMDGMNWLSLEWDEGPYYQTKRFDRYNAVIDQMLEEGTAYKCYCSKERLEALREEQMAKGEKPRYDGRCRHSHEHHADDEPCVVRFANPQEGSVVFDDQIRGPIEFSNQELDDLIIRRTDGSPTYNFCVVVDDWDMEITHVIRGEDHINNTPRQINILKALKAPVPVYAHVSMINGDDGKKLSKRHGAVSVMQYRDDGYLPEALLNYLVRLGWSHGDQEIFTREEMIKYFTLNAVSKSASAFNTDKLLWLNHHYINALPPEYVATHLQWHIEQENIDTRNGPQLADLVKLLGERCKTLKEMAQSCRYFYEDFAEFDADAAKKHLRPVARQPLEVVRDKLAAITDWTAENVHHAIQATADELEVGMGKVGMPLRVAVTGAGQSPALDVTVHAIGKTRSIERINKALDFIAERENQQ
smiles,measurement,setting,value
"Nc1ncnc2c1ncn2[C@@H]1O[C@H](COS(=O)(=O)NC(=O)[C@@H](N)CCC(=O)O)[C@@H](O)[C@H]1O [Glu-AMS, 5’-O-[N-(L-glutamyl)sulfamoyl]adenosine]",Kd,[1],545 ± 162 nM
same,Kd,[2],547 ± 150 nM
same,Kd,[3],281 ± 39 nM
same,Kd,[4],307 ± 28 nM
same,Kd,[5],256 ± 20 nM
same,Kd,[6],318 ± 82 nM
same,Kd,[7],231 ± 37 nM
same,-TΔSb,[8],-3.996 ± 0.05 kcal/mol
same,n (stoichiometry coefficient),[8],0.9998 ± 0.0094
same,ΔHb (reaction enthalpy),[8],-5.041 ± 0.063 kcal/mol
same,ΔSb (reaction entropy),[8],13.2 cal/mol·K and 13.19 ± 0.16 cal/mol·K
same,-TΔSb,"293 K, mean of ITC runs",-4.479 ± 0.218 kcal/mol
same,n (stoichiometry coefficient),"293 K, mean of ITC runs",1.0097 ± 0.0369
same,ΔHb (reaction enthalpy),"293 K, mean of ITC runs",-3.929 ± 0.191 kcal/mol
same,ΔSb (reaction entropy),"293 K, mean of ITC runs",15.29 ± 0.74 cal/mol·K
same,ΔGb (reaction energy),"293 K, mean of ITC runs, ΔGb = -RT Ln Kb",-8.396 ± 0.0016 kcal/mol
same,-TΔSb,"310 K, mean of ITC runs",-2.835 ± 0.036 kcal/mol
same,n (stoichiometry coefficient),"310 K, mean of ITC runs",1.0016 ± 0.0095
same,ΔHb (reaction enthalpy),"310 K, mean of ITC runs",-6.395 ± 0.081 kcal/mol
same,ΔSb (reaction entropy),"310 K, mean of ITC runs",9.146 ± 0.117 cal/mol·K
same,ΔGb (reaction energy),"310 K, mean of ITC runs, ΔGb = -RT Ln Kb",-9.326 ± 0.1 kcal/mol
same,change in heat capacity (ΔCp),"from ΔHb at 293, 303 and 310 K",-143 ± 23 cal/mol·K
same,-TΔSb,[1],-4495 ± 320
same,n (stoichiometry coefficient),[1],1.014 ± 0.054
same,ΔGb (reaction energy),[1],-8.397 kcal/mol
same,ΔHb (reaction enthalpy),[1],-3.909 ± 0.279 kcal/mol
same,ΔSb (reaction entropy),[1],15.34 ± 1.09 cal/mol·K
same,-TΔSb,[2],-4465 ± 297
same,n (stoichiometry coefficient),[2],1.006 ± 0.050
same,ΔGb (reaction energy),[2],-8.395 kcal/mol
same,ΔHb (reaction enthalpy),[2],-3.946 ± 0.263 kcal/mol
same,ΔSb (reaction entropy),[2],15.24 ± 1.01 cal/mol·K
same,-TΔSb,[3],-3936 ± 97
same,n (stoichiometry coefficient),[3],0.9963 ± 0.0184
same,ΔGb (reaction energy),[3],-9.083 kcal/mol
same,ΔHb (reaction enthalpy),[3],-5.142 ± 0.127 kcal/mol
same,ΔSb (reaction entropy),[3],12.99 ± 0.32 cal/mol·K
same,-TΔSb,[4],-4018 ± 58
same,n (stoichiometry coefficient),[4],1.001 ± 0.011
same,ΔGb (reaction energy),[4],-9.029 kcal/mol
same,ΔHb (reaction enthalpy),[4],-5.007 ± 0.073 kcal/mol
same,ΔSb (reaction entropy),[4],13.26 ± 0.19 cal/mol·K
same,-TΔSb,[5],-2680 ± 41
same,n (stoichiometry coefficient),[5],0.9997 ± 0.0114
same,ΔGb (reaction energy),[5],-9.349 kcal/mol
same,ΔHb (reaction enthalpy),[5],-6.654 ± 0.102 kcal/mol
same,ΔSb (reaction entropy),[5],8.646 ± 0.132 cal/mol·K
same,-TΔSb,[6],-2978 ± 147
same,n (stoichiometry coefficient),[6],1.005 ± 0.037
same,ΔGb (reaction energy),[6],-9.217 kcal/mol
same,ΔHb (reaction enthalpy),[6],-6.225 ± 0.307 kcal/mol
same,ΔSb (reaction entropy),[6],9.607 ± 0.473 cal/mol·K
same,-TΔSb,[7],-3531 ± 90
same,n (stoichiometry coefficient),[7],1.006 ± 0.019
same,ΔGb (reaction energy),[7],-9.413 kcal/mol
same,ΔHb (reaction enthalpy),[7],-5.873 ± 0.15 kcal/mol
same,ΔSb (reaction entropy),[7],11.39 ± 0.29 cal/mol·K
